{"source": "patent US12036262B2", "about": "“Edible plant-derived nanoparticles for regulation of gut microbiota” (University of Louisville Research Foundation, Inc., priority 2017, dated 2024)", "key": {"[1]": {"test_system": "colon lymphocytes", "test": "ELISA of IL-22 in supernatants of isolated colon lymphocytes", "format": "cell-based, mice", "procedure": "Enzyme-Linked Immunosorbent Assay (ELISA). The cytokine IL-22, IL-1β, and TNFα levels in cell culture supernatants or mouse colon mucus were quantified using ELISA kits (eBioscience) according to the manufacturer's instructions. Briefly, a microtiter plate was coated with anti-mouse IL-22, IL-1β and TNFα antibody at 1:200 overnight at 4° C. Excess binding sites were blocked with 200 μl of 1×[…] Diluent (eBioscience, San Diego, California, United States of America) for 1 hour at 22° C. After washing three times with PBS containing 0.05% Tween 20, the plate was incubated with detection antibody in blocking buffer for 1 hour at 22° C. After three washes, avidin conjugated with horseradish peroxidase and substrate were each added sequentially for 1 hour and 30 min at 22° C. […] Isolation of Lymphoid Cells in the Colon. Intestinal lymphoid cells were isolated from the intestine by incubation in PBS supplemented with 1 mM EDTA, 15 mM HEPES and 10% FCS for 30 minutes at 37° C. Supernatants were discarded, and tissues were then incubated in RPMI supplemented with 15 mM HEPES and 300 units/mL collagenase type VIII (Sigma) for 30 minutes with gentle shaking. Lysates were gently pressed through nylon cell strainers (70 μm in diameter; […] Lymphocytes were recovered from the interface and washed twice."}, "[2]": {"test_system": "IL-22, IL-1β, TNFα", "test": "ELISA of IL-22, IL-1β and TNFα in colon mucus", "format": "in vivo, mice", "procedure": "Enzyme-Linked Immunosorbent Assay (ELISA). The cytokine IL-22, IL-1β, and TNFα levels in cell culture supernatants or mouse colon mucus were quantified using ELISA kits (eBioscience) according to the manufacturer's instructions. Briefly, a microtiter plate was coated with anti-mouse IL-22, IL-1β and TNFα antibody at 1:200 overnight at 4° C. Excess binding sites were blocked with 200 μl of 1×ELISA/ELISPoT Diluent (eBioscience, San Diego, California, United States of America) for 1 hour at 22° C. After washing three times with PBS containing 0.05% Tween 20, the plate was incubated with detection antibody in blocking buffer for 1 hour at 22° C. After three washes, avidin conjugated with horseradish peroxidase and substrate were each added sequentially for 1 hour and 30 min at 22° C. An analysis of absorbance at 405 nm using a microtiter plate reader (BioTek Synergy HT, BioTek Instruments, Inc., Winooski, Vermont, United States of America) followed."}, "[3]": {"test_system": "LGG", "test": "HPLC analysis of tryptophan metabolites in LGG MRS broth", "format": "cell-based, Lactobacillus rhamnosus", "procedure": "HPLC Analysis of Tryptophan Metabolites. The fecal samples and LGG MRS broth were diluted with an equal volume of methanol. After centrifugation at 10,000×g for 30 minutes, 50 μl of supernatant was injected for high-performance liquid chromatography (HPLC) analysis. The HPLC analysis was performed on an Agilent 1260 Infinity system equipped with an Agilent ZORBAX SB-C18 column (4.6×150 mm, 3.5 μm), with following parameters: mobile phase A: 5 mM NH4Ac in water modified with 0.1% formic acid (v/v); mobile phase B: 5 mM NH4Ac in 90% acetonitrile modified with 0.1% formic acid (v/v); gradient: 5% B in first 5 min, 5-20% B for 10 min, hold 20% B for 5 min, 20%-50% B for 5 min, hold 50% B for 5 min, 50%-100% B for 5 min, hold 100% B for 10 min, 100-5% B for 5 min; flow rate: 1.0 ml/min; temperature: 30° C. UV detection at 300 nm was used to monitor indole-3-carboxaldehyde (I3A) and indole-3-acetaldehyde (IAAld); FLD (ex=280 nm; em=350 nm) was used for detection of tryptophan and indole-3-acetamide (I3AM). The standard for I3A (Catalog No. 129445-5g), I3AM (Catalog No. 286281-1G), IAAld (Catalog No. I1000-25MG), and tryptophan (Catalog No. T0254-25g) were purchased from Sigma."}, "[4]": {"test_system": "MC-38 cells", "test": "Migration assay, intracellular LGG", "format": "cell-based, C57BL/6 murine", "procedure": "Cells. C57BL/6 murine colon adenocarcinoma MC-38 cells (gender unknown; Kerafast, Inc., Boston, Massachusetts, United States of America) or human epithelial colorectal adenocarcinoma Caco-2 cells (American Type Culture Collection, ATCC®, Manassas, Virginia, United States of America) were grown in tissue culture plates with Dulbecco's modified Eagle's medium (DMEM) supplemented with 10% heat-inactivated fetal bovine serum (FBS), 100 U/mL penicillin, and 100 μg/mL streptomycin at 37° C. in a 5% CO2 atmosphere.\nMigration Assays. MC-38 or Caco-2 cells (ATCC) were seeded at 1×10^5 cells per well in a 12-well tissue culture plate with Dulbecco's modified Eagle's medium (DMEM) without antibiotics. The cells were inoculated with 1×10^7 bacteria per well for 90 minutes at 37° C. in a 5% CO2 atmosphere to allow bacterial adhesion and entry. The number of intracellular bacteria was quantified as described in Zhang & Wang, 1998."}, "[5]": {"test_system": "monooxygenase ycnE", "test": "ycnE expression in LGG (qPCR, mRNA sequencing, LC-MS/MS)", "format": "cell-based, Lactobacillus rhamnosus", "procedure": "Quantitative Real-Time PCR for RNA Expression. The quantity of mature miRNAs was determined with quantitative real-time PCR (qPCR) using a miScript II RT kit (QIAGEN Inc., Germantown, Maryland, United States of America) and miScript SYBR Green PCR Kit (QIAGEN) with QIAGEN 3′ universal primers. For analysis of gene mRNA expression, 1 μg of total RNA was reverse transcribed using SuperScript III reverse transcriptase (Invitrogen, Waltham, Massachusetts, United States of America), and quantitation was performed using SsoAdvanced™ Universal SYBR Green Supermix (Bio-Rad Laboratories, Inc., Hercules, California, United States of America) and the listed primers (Table 1) with SsoAdvanced™ Universal SYBR Green Supermix (Bio-Rad). qPCR was performed using a Bio-Rad CFX96 qPCR System with each reaction run in triplicate. Analysis and fold-changes were determined using the comparative threshold cycle (Ct) method. Changes in miRNA or mRNA expression were calculated as fold-change. […]\nLGG mRNA Sequencing. […] Following quantitation with Qubit dsDNA HS Reagent (Catalog No., Q32854; Thermo Scientific,), 10 ng of dscDNA/sample was fragmented with an E220 Focused-ultrasonicator (Covaris, Matthews, North Carolina, United States of America). […] Libraries were then combined into equimolar pools, which were then measured for size and concentration. […] The first and second reads were each 83 bases."}}, "data": [{"molecule": "O=Cc1c[nH]c2ccccc12", "note": "[I3A, indole-3-carboxaldehyde]", "values": [{"measurement": "induction of IL-22 in colon lymphocytes from AHR KO mice", "setting": "[1]; AHR KO mice", "result": "no evidence of an impact"}, {"measurement": "IL-22 in supernatants of colon lymphocytes", "setting": "[1]; colon lymphocytes from naïve B6 mice incubated for 3 hours", "result": "induced expression of IL-22"}]}, {"molecule": "NC(=O)Cc1c[nH]c2ccccc12", "note": "[I3AM, indole-3-acetamide]", "values": [{"measurement": "inhibitory effect on IL-22 production in AHR KO mice", "setting": "[2]; AHR KO mice treated with LGG supernatant exposed to I3AM", "result": "did not occur"}, {"measurement": "production of IAAld and I3A by LGG", "setting": "[3]; MRS media, different concentrations of I3AM", "result": "inhibited the production of IAAld and I3A in a dose-dependent manner"}, {"measurement": "GELN-RNA-mediated induction of the I3A precursor IAAld in LGG cultures", "setting": "[3]; addition of I3AM to LGG cultures", "result": "significantly inhibited"}]}, {"molecule": "O=CCc1c[nH]c2ccccc12", "note": "[IAAld, indole-3-acetaldehyde]", "values": [{"measurement": "I3AM-mediated inhibitory effect on IL-22 production", "setting": "[2]; colon mucus of WT mice gavaged with MRS medium from treated LGG", "result": "cancelled the I3AM-mediated inhibitory effort on IL-22 production"}, {"measurement": "inhibitory effect of I3AM on the production of I3A", "setting": "[3]; additional IAAld", "result": "cancelled"}]}, {"molecule": "ath-miR827: GELN-derived miRNA, SEQ ID NO: 81 (UUAGAUGACCAUCAACAAACU; expressed or natural sequence)", "values": [{"measurement": "LGG entry into MC38 cells", "setting": "[4]", "result": "could prevent the entry of LGG into gut epithelial cells"}]}, {"molecule": "ath-miR842: GELN-derived miRNA, SEQ ID NO: 82 (UCAUGGUCAGAUCCGUCAUCC; expressed or natural sequence)", "values": [{"measurement": "LGG entry into MC38 cells", "setting": "[4]", "result": "could prevent the entry of LGG into gut epithelial cells"}]}, {"molecule": "mdo-miR7267-3p: GELN-derived miRNA, SEQ ID NO: 129 (CAUCCAGCCAUCCACCCCAGGCCAUC; expressed or natural sequence)", "values": [{"measurement": "ycnE expression in LGG", "setting": "[5]", "result": "indeed inhibited"}, {"measurement": "I3A in LGG cultures", "setting": "[3]", "result": "induction of I3A"}, {"measurement": "I3AM in LGG cultures", "setting": "[3]", "result": "inhibition of I3AM"}]}]}
